Experimental data: patent US8217061B2, “Polymorphs of sorafenib tosylate and sorafenib hemi-tosylate, and processes for preparation thereof” (Sicor Inc., priority 2008, dated 2012)

Experiments:
[1] = stability of crystalline form in water suspension (no hydrolysis of the PTSA moiety); type: physicochemical; conditions: about 20° C., stable = no hydrolysis of the PTSA moiety in water for at least about 48 hours
Experimental: Sorafenib hemi-tosylate Form A is a stable crystalline form in water suspensions at a temperature of about 20° C., making it ideal for use in the preparation of a dosage form, particularly when the process of wet granulation is used.

[2] = as reported in WO 2006/034797, page 2, lines 5-7; cited from earlier work

| stability of crystalline form in water suspensions [1] | Molecule | stability of polymorphic form [2] |
| --- | --- | --- |
| stable | Sorafenib hemi-tosylate [Sorafenib hemi-tosylate Form A] | – |
| – | CNC(=O)c1cc(Oc2ccc(NC(=O)Nc3ccc(Cl)c(C(F)(F)F)c3)cc2)ccn1.Cc1ccc(S(=O)(=O)O)cc1 [form II, 4-(4-{3-[4-chloro-3-(trifluoromethyl)phenyl]ureido}phenoxy)-N2-methylpyridine-2-carboxamide 4-methylbenzenesulfonate] | meta stable |
